Test system: DU 145
Test: Proliferation test (cytotoxicity assay, crystal violet staining)
Type: cell-based
Details: Homo sapiens; cytotoxicity assay using the cell line DU 145
Protocol: Biological experiment 3: Proliferation test
To examine cell toxicity a cell proliferation test were established.
With the cell proliferation test different tumour cell lines (e.g. Du 145) can be examined. The cells were dispensed in RPMI 1640 culture medium, supplied with 10 % (v/v) fetal calf serum plus 1 % (v/v) Penicillin/Streptomycin solution at a cell density of 2.000 cell/100µL medium/per well (96well plate). After three hours the cells were washed with PBS (containing calcium and magnesium). 100 µl of culture medium above with 0.1 % (v/v) fetal calf serum was added and cultured at 37°C and 5% CO2-atmosphere. Next day compounds of the present invention diluted in DMSO for appropriate concentrations were added and further 100 µL culture medium 0.5 % (v/v) fetal calf serum. After 5 days cell culturing at 37°C and 5% CO2-atmosphere cells were washed with PBS. 20 µL of glutaraldehyde solution (11 % (v/v)) is added and the cells were slightly shaken at room temperature for 15 min. After that the cell were washed 3 times and dried in the air. 100 µL of crystal violet solution (0.1 % at pH 3.5) were added and the cells were shaken for 30 min. The cells were washed with tap water and air-dried. The colour is dissolved with 100 µL of acetic acid (10 % (v/v)) under strong shaking for 5 min. The absorption was measured at 595 nm wavelength.

Compound: CC(=O)c1ccc(-c2cnc3nc2NCCCNS(=O)(=O)c2cccc(c2)N3)cc1 [Example Compound 1.2, 1-[4-[4,4-dioxo-4λ^6-thia-2,5,9-triaza-1(2,4)-pyrimidina-3(1,3)-benzenacyclononaphan-1^5-yl]phenyl]ethanone]
- IC50: > 1000 nM

Compound: COC(=O)c1ccc(-c2cnc3nc2NCCCNS(=O)(=O)c2cccc(c2)N3)cc1 [Example Compound 1.1, methyl 4-[4,4-dioxo-4λ^6-thia-2,5,9-triaza-1(2,4)-pyrimidina-3(1,3)-benzenacyclononaphan-1^5-yl]benzoate]
- IC50: > 1000 nM

Compound: O=S1(=O)NCCCNc2nc(ncc2-c2ccccc2)Nc2cccc1c2 [Example Compound 1.3, 1^5-phenyl-4-thia-2,5,9-triaza-1(2,4)-pyrimidina-3(1,3)-benzenacyclononaphane 4,4-dioxide]
- IC50: > 1000 nM

Compound: COc1ccc(-c2cnc3nc2NCCCNS(=O)(=O)c2cccc(c2)N3)cc1 [Example Compound 1.5, 1^5-(4-methoxyphenyl)-4-thia-2,5,9-triaza-1(2,4)-pyrimidina-3(1,3)-benzenacyclononaphane 4,4-dioxide]
- IC50: > 1000 nM
